The nature of series [1]: in vitro. Particulars: human, liver microsomes.
Series [2] can be described thus: in vitro. Particulars: rat, liver microsomes.
A short description of series [3]: in vitro. Particulars: mouse, liver microsomes.

The values that follow come from ChEMBL document CHEMBL5042542, “Discovery of Non-Nucleotide Small-Molecule STING Agonists via Chemotype Hybridization” (J Med Chem, 2022).

A value given as a limit tells only on which side of the number the result lay.

Turning to `O=C(O)c1cccc2c(Cl)c(CNC(=O)c3cnn4cccnc34)oc12`, the share remaining at 10 min, 0.5 µM was 99% in “in vitro [1]”, 91% in the series “in vitro [2]” and 85% in the series “in vitro [3]”.

Regarding `Cc1ccc2c(=O)c3cccc(CC(=O)O)c3oc2c1C` [VADIMEZAN], the results for the fraction remaining at 10 min, 0.5 µM in the series “in vitro [1]”, in “in vitro [2]” and in the series “in vitro [3]” were 100%, 100% and 89%, respectively.

For `O=C(O)c1cccc2cc(Cn3ccc4ccncc4c3=O)oc12`, the results for the amount remaining at 10 min, 0.5 µM in the series “in vitro [1]”, in “in vitro [2]” and in the series “in vitro [3]” were 98%, 100% and 96%, respectively.

Consider `O=C(O)c1ccc2oc(CNC(=O)c3cnn4cccnc34)cc2c1`, for which the figures for the fraction remaining at 10 min, 0.5 µM in the series “in vitro [1]”, in the series “in vitro [2]” and in the series “in vitro [3]” were 100%, 100% and 88%, respectively.

For the compound `O=C(O)c1ccc2cc(CNC(=O)c3cnn4cccnc34)oc2c1`, the amount remaining at 10 min, 0.5 µM in the series “in vitro [1]”, in the series “in vitro [2]” and in “in vitro [3]” was 100% each time.

For the compound `O=C(NCc1cc2cc(Cl)c3oc(=O)[nH]c(=O)c3c2o1)c1cnn2cccnc12`, the share remaining at 10 min, 0.5 µM worked out at 54% in the series “in vitro [1]”, 69% in the series “in vitro [2]” and 57% in “in vitro [3]”.

With `O=C(O)c1cc(Cl)cc2cc(CNC(=O)c3cnn4cccnc34)oc12`, the share remaining at 10 min, 0.5 µM in “in vitro [1]”, in “in vitro [2]” and in “in vitro [3]” was 100% throughout.

For the compound `O=C(O)c1c(O)c(Cl)cc2cc(CNC(=O)c3cnn4cccnc34)oc12`, the amount remaining at 10 min, 0.5 µM in the series “in vitro [1]” stood at 98%; in “in vitro [2]”, 88%; in the series “in vitro [3]”, 93%.

Regarding `CCn1nc(C)cc1C(=O)Nc1nc2cc(C(N)=O)cc(OC)c2n1C/C=C/Cn1c(NC(=O)c2cc(C)nn2CC)nc2cc(C(N)=O)cc(OCCCN3CCOCC3)c21`, the amount remaining at 10 min, 0.5 µM in “in vitro [1]” is 22%; in the series “in vitro [2]”, 81%; in the series “in vitro [3]” it was more than 100%.

As for `O=C(NCc1cc2cc(Cl)cc(-c3nn[nH]n3)c2o1)c1cnn2cccnc12`, the amount remaining at 10 min, 0.5 µM in “in vitro [1]” is 96%; in the series “in vitro [2]” it was 89%; in “in vitro [3]” it was 80%.

As for `O=C(O)c1c(F)ccc2cc(CNC(=O)c3cnn4cccnc34)oc12`, the fraction remaining at 10 min, 0.5 µM worked out at 98% in “in vitro [1]”, 91% in “in vitro [2]” and 92% in “in vitro [3]”.

As for `O=C(NCc1cc2cc(Cl)cc(C(=O)O)c2o1)c1cncc2cccnc12`, the share remaining at 10 min, 0.5 µM in the series “in vitro [1]” turned out to be 92%; in “in vitro [2]” it was 64%; in “in vitro [3]” it was 65%.

Take `O=C(O)c1cccc2cc(CNC(=O)c3cnn4cccnc34)oc12`: the fraction remaining at 10 min, 0.5 µM came out at 94% in “in vitro [1]”, 96% in the series “in vitro [2]” and 97% in “in vitro [3]”.

With `Cn1c(CNC(=O)c2cnn3cccnc23)nc2c(C(=O)O)cccc21`, the amount remaining at 10 min, 0.5 µM was 95% in “in vitro [1]”, 89% in the series “in vitro [2]” and 85% in “in vitro [3]”.

With `COC(=O)c1cccc2cc(CN3Cc4ccncc4C3=O)oc12`, the share remaining at 10 min, 0.5 µM was 0% in “in vitro [1]”, 7% in “in vitro [2]” and 11% in “in vitro [3]”.

On to `C[C@H](NC(=O)c1cnn2cccnc12)c1cc2cc(Cl)cc(C(=O)O)c2o1`, for which the amount remaining at 10 min, 0.5 µM in “in vitro [1]” was determined as 100%; in the series “in vitro [2]” it was 94%; in the series “in vitro [3]” it was 100%.
